Measurements from article PMC11811631 (RSC Chemical Biology, 2025).

Target: ScoE (Streptomyces coeruleorubidus, UniProt A0A3B6UEU3)
Assay: LC-MS of pyrazole product […] after tetrazine derivatization
Type: biochemical

| SMILES | LC-MS of pyrazole product 8 after tetrazine derivatization (preferred chain length) | LC-MS of pyrazole product 8 after tetrazine derivatization (accepted chain length) |
| --- | --- | --- |
| CC(CC(=O)O)NCC(=O)O (centres unmarked) [6 (n = 1), methyl-6] | substrates that have a short alkyl chain, e.g., a methyl and propyl group | – |
| CCCC(CC(=O)O)NCC(=O)O (centres unmarked) [6 (n = 3), 6 with a propyl group] | – | substrates that have a short alkyl chain, e.g., a methyl and propyl group |
